Results on 1 compound are retold here after patent US9593084B2 (Parion Sciences, Inc., priority 2012, dated 2017).

The subject of one data set is Sheep MCC. As to the kind of experiment: Mucociliary clearance (MCC) studies in sheep. The format is in vivo. Particulars: for AUC (% CI × h) / Initial Slope (4.0-4.5 h): MCC at 4 h post-dose. The procedure: The animal model that has been used most often to measure changes in MCC is the sheep model. The effect of compounds for enhancing mucociliary clearance (MCC) can be measured using an in vivo model described by Sabater et al., Journal of Applied Physiology, 1999, pp. 2191-2196, incorporated herein by reference.
(§1) In these studies, adult sheep were restrained and nasally intubated with an endotracheal tube. Aerosolized test articles were administered over 10-15 minutes to sheep. Radiolabeled ^99mTc-sulfur colloid (TSC, 3.1 mg/mL; containing approximately 20 mCi) was then administered at a specified time four or eight hours after test article. The radiolabeled aerosol was administered through the endotracheal tube for about 5 minutes. The sheep were then extubated, and total radioactive counts in the lung were measured every 5 minutes for a 1-hour observation period. The rate of radiolabel clearance from the lung is representative of the MCC rate in the animal. The advantage of this system is that it closely simulates the human lung environment. The model also allows for the collection of simultaneous PK/PD information through plasma and urine sampling over the test period. There are also several techniques to measure the drug concentrations on the airway surface during the MCC measurements. These include the collection of exhaled breath condensates or a filter paper method to obtain ASL via bronchoscopy.
The ovine model described above was used to evaluate the in vivo effects (efficacy/durability) of aerosol-delivered test agent on MCC. Treatments consisting of either 4 mL of test agent or test agent in combination with HS were tested. To determine if combining HS with test agent enhanced MCC, HS was administered immediately following test agent administration. Test solutions were aerosolized using a Raindrop nebulizer at a flowrate of eight liters per minute and connected to a dosimetry system consisting of a solenoid valve and a source of compressed air (20 psi). The deposited dose of drug in sheep lungs after an aerosol administration using the Raindrop nebulizer is estimated to be 8-15% of the dose. Using a Raindrop nebulizer, radiolabeled TSC was administered over approximately 3 minutes either 4 or 8 hours after drug treatment to evaluate efficacy/durability. Radioactive counts were measured in a central region in the right lung at 5 min intervals for one hour with a gamma camera. Three methods of analysis were utilized, 1) initial rate of clearance (slope) over the first 30 min fitted using linear regression 2) area under the curve for % clearance over time over one hour, and 3) the maximum clearance obtained in one hour.

Data set [1] has as its system human bronchial epithelial (HBE) cells. As to the kind of experiment: Airway surface liquid drug clearance and metabolism by human airway epithelium. The class given is in vitro ADME. The procedure: The disappearance of 33 from the apical surface and airway epithelial metabolism were assessed in human bronchial epithelial (HBE) cells (Table 3). In these experiments 25 μL of a 25 μM solution of ENaC blocker was added to the apical surface of HBE cells grown at an air/liquid interface, and the drug and metabolite concentration in the apical and basolateral compartment was measured over 2 h by UPLC.
Therefore, the compounds of formula (I) have a longer half-life on mucosal surfaces compared to these know compounds as evidenced by the data shown in Table G. The disappearance of Compound 33 from the apical surface and airway epithelial metabolism were assessed in HBE and compared to Comparative Example 1 (Table H). In these experiments 25 μL of a 25 μM solution of ENaC blocker was added to the apical surface of HBE cells grown at an air/liquid interface, and the drug concentration in the apical and basolateral compartment was measured over 2 h by UPLC.

The nature of data set [2]: Plasma potassium levels in sheep of the MCC study. The format is in vivo. The procedure: as §1
The compound of Comparative Example 1 can be seen on page 15 of US 2005/0080093 and as Compound 2 on page 90 of WO 2008/031048, and as Compound 2 on pages 42-43 of WO 2008/031028. […] In order to evaluate this potential, it is beneficial to have MCC activity in vivo and not cause elevation of plasma potassium at the useful dose. One model to assess this is the sheep MCC model described below.

Where [3] appears, read: sheep, solution concentration given beside the dose.
Setting [4] is: HBE cells at air/liquid interface, 25 μL of 25 μM apical, mean ± SD.
[5] abbreviates: HBE cells, 25 μL of 25 μM apical, parent only.

Where “and” joins values, the source holds several entries; their conditions need not be identical. Identical values can stand only once. Entries after “also recorded” stand apart in the source; their conditions may differ.

As usually defined, the ED50 is the midpoint of the dose-response relation. `N=C(NCCCCc1ccc(OC[C@H](N)C(N)=O)cc1)NC(=O)c1nc(Cl)c(N)nc1N` [Comparative Example 1, (S)-3,5-diamino-6-chloro-N—(N-(4-(4-(2,3-diamino-3-oxopropoxy)phenyl)butyl)carbamimidoyl)pyrazine-2-carboxamide]: the median effective dose (ED50) with Sheep MCC (Ovis aries, using slope, AUC and Maximum Clearance, read-out: ED50 in the sheep MCC model) was roughly 0.24 µmol/kg. Further, in the data set with Sheep MCC (approximate ED50 dose as concentration of dosing solution), the “ED50 in the sheep MCC model (solution concentration)” value was roughly 3000 µM. Also, in the data set with Sheep MCC (sheep, 24 nmol/kg (300 μM)), the “AUC (% CI × h)” value is on record as 6.9 ± 1.0 (3) % CI × h and the “Initial Slope (4.0-4.5 h)” value is 14.5 ± 1.3 (3). In addition, in the data set with Sheep MCC (sheep, 240 nmol/kg (3 mM)), the “AUC (% CI × h)” value is listed as 14.1 ± 2.2 (6) % CI × h and the “Initial Slope (4.0-4.5 h)” value is given as 32.2 ± 7.3 (6). In the data set on Sheep MCC (setting [3]), the “MCC Highest Submaximal Dose” value was 240 nmol/kg (3 mM). Besides, in the data set with Sheep MCC (sheep, top dose without plasma potassium elevation vs MCC highest submaximal dose), the “Therapeutic Ratio (Benefit/Risk)” value is 0.1. Further, in data set [1] (setting [4]), the “% of Apical Mass as Metabolites (2 h)” value was 83% and 83.0 ± 3.5%; the “% on Basolateral Side as Metabolites (2 h)” value was found to be 94.7 ± 1.0%. For the same compound, in data set [1] (setting [5]), the “% of Initial Apical Mass on Basolateral Side as Parent (2 h)” value was “(1% Parent)” and the “% of Initial Drug Mass on Apical Side as Parent (2 h)” value is on record as “(8% Parent)”. Moreover, the “fate on the apical side after 2 h incubation” value in data set [1] (HBE cells, apical surface, 37° C.) was “eliminated from the apical side”. In addition, in data set [2] (sheep of the MCC study, at efficacious dose), the “effect on plasma potassium” value was “causes a rise in plasma potassium; also recorded: elevations of plasma K”. Besides, the “Top Dose in Sheep with no Elevation of Plasma Potassium” value in data set [2] (setting [3]) is 24 nmol/kg (300 μM).
